Assay results reported in the supplement of paper PMC10307832.

Experiments:
Assay in all cases: relative viability (nuclei count vs DMSO), 5 days (fraction); higher = more cells survive
Lestaurtinib + AZD7762 = compound: C[C@]12O[C@H](C[C@]1(O)CO)n1c3ccccc3c3c4c(c5c6ccccc6n2c5c31)CNC4=O [Lestaurtinib] + NC(=O)Nc1cc(-c2cccc(F)c2)sc1C(=O)N[C@H]1CCCNC1 [AZD7762] (partner 0.2 µM)
Summary of the method: (§1)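 Values are medians from duplicate plates. Each reflects relative viability, defined as the nuclei count of treated wells over that of vehicle wells. Lung cancer cell lines in 1536-well plates were pin-tool dosed one day after seeding with one drug alone or with a fixed anchor-drug dose plus five library-drug doses (not always all listed) in √10 steps, then fixed, stained and imaged at 4× after 5 days.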

[1] = compound: C[C@]12O[C@H](C[C@]1(O)CO)n1c3ccccc3c3c4c(c5c6ccccc6n2c5c31)CNC4=O [Lestaurtinib] + CC1(C)CCC(c2ccc(Cl)cc2)=C(CN2CCN(c3ccc(C(=O)NS(=O)(=O)c4ccc(N[C@H](CCN5CCOCC5)CSc5ccccc5)c(S(=O)(=O)C(F)(F)F)c4)cc3)CC2)C1 [Navitoclax] (partner 0.5 µM)
Summary of the method: as §1

[2] = compound: C1/C(=C\C2=CC=CS2)/C(=O)/C(=C/C3=CC=CS3)/C1 + CC(=O)c1c(C)c2cnc(Nc3ccc(N4CCNCC4)cn3)nc2n(C2CCCC2)c1=O [Palbociclib] (partner 0.5 µM)
Summary of the method: as §1

TPCA-1 + Tozasertib = compound: C1=CC(=CC=C1C2=CC(=C(S2)NC(=O)N)C(=O)N)F [TPCA-1] + Cc1cc(Nc2cc(N3CCN(C)CC3)nc(Sc3ccc(NC(=O)C4CC4)cc3)n2)n[nH]1 [Tozasertib] (partner 0.1 µM)
Summary of the method: as §1

| Cell Line | relative viability (Lestaurtinib + AZD7762; first compound 0.005 µM) | relative viability (Lestaurtinib + AZD7762; first compound 0.01581 µM) | relative viability (Lestaurtinib + AZD7762; first compound 0.05 µM) | relative viability (Lestaurtinib + AZD7762; first compound 0.1581 µM) | relative viability (Lestaurtinib + AZD7762; first compound 0.5 µM) | relative viability ([1]; first compound 0.005 µM) | relative viability ([1]; first compound 0.01581 µM) | relative viability ([1]; first compound 0.05 µM) | relative viability ([1]; first compound 0.1581 µM) | relative viability ([1]; first compound 0.5 µM) | relative viability ([2]; first compound 0.2 µM) | relative viability ([2]; first compound 0.6325 µM) | relative viability ([2]; first compound 2 µM) | relative viability ([2]; first compound 6.325 µM) | relative viability ([2]; first compound 20 µM) | relative viability (TPCA-1 + Tozasertib; first compound 0.04 µM) | relative viability (TPCA-1 + Tozasertib; first compound 0.1265 µM) | relative viability (TPCA-1 + Tozasertib; first compound 0.4 µM) | relative viability (TPCA-1 + Tozasertib; first compound 1.265 µM) | relative viability (TPCA-1 + Tozasertib; first compound 4 µM) |
| --- | --- | --- | --- | --- | --- | --- | --- | --- | --- | --- | --- | --- | --- | --- | --- | --- | --- | --- | --- | --- |
| NCI-H460 | 0.651 | 0.765 | 0.757 | 1.31 | 0.645 | 1.37 | 1.01 | 0.694 | 0.894 | 0.544 | 0.201 | 0.174 | 0.224 | 0.244 | 0.146 | 0.473 | 0.69 | 0.419 | 0.448 | 0.0397 |
| NCI-H647 | 0.307 | 0.756 | 0.275 | 0.165 | 0.0697 | 1.08 | 0.945 | 0.572 | 0.465 | 0.116 | 0.441 | 0.442 | 0.378 | 0.398 | 0.405 | 0.262 | 0.198 | 0.348 | 0.129 | 0.164 |
| NCI-H727 | 0.564 | 0.633 | 0.522 |  | 0.452 | 0.502 | 0.478 | 0.489 | 0.332 | 0.185 | 0.632 | 0.678 | 0.61 |  | 0.669 | 0.558 | 0.719 | 0.693 | 0.661 | 0.492 |
| NCI-H838 | 1.01 | 0.951 | 0.933 | 0.873 | 0.681 | 1.21 | 1.05 | 1 | 0.532 | 0.164 | 0.225 | 0.212 | 0.211 | 0.203 | 0.194 | 0.257 | 0.232 | 0.249 | 0.217 | 0.223 |
| NCI-H1355 | 0.839 | 0.815 | 0.574 | 0.54 | 0.422 | 0.908 | 0.889 | 0.73 | 0.457 | 0.459 | 0.381 | 0.379 | 0.408 | 0.34 | 0.382 | 0.595 | 0.574 | 0.597 | 0.461 | 0.254 |
| NCI-H1395 | 0.385 | 0.405 | 0.407 | 0.384 | 0.325 | 1.38 | 1.28 | 1.06 | 0.912 | 0.413 | 0.616 | 0.683 | 0.612 | 0.566 | 0.599 | 0.906 | 0.69 | 0.766 | 0.657 | 0.61 |
| NCI-H1437 | 1.13 | 1.2 | 0.941 | 1.12 | 0.945 | 1.13 | 1.2 | 1 | 1.02 | 0.689 | 0.322 | 0.314 | 0.282 | 0.307 | 0.336 | 0.434 | 0.39 | 0.42 | 0.385 | 0.372 |
| NCI-H1651 | 0.447 | 0.503 | 0.349 | 0.558 | 0.318 | 1.12 | 1.12 | 0.79 | 1.05 | 0.471 | 0.48 | 0.554 | 0.563 | 0.47 | 0.527 | 0.678 | 0.646 | 0.794 | 0.652 | 0.521 |
